Measurements reported in BindingDB's records for doi:10.1021/jm9604890 (University of Groningen, 1997).

Assay: Compound was tested for intrinsic efficacy against human 5-hydroxytryptamine 1D receptor alpha measured as the reduction of forskolin-stimulated cAMP.
Work on `NCCc1c[nH]c2ccc(OS(=O)(=O)C(F)(F)F)cc12` [Trifluoro-methanesulfonic acid 3-(2-amino-ethyl)-1H-indol-5-yl ester] yielded a Ki of 19 nM. Compound `CN(C)CCc1c[nH]c2ccc(OS(=O)(=O)C(F)(F)F)cc12` [Trifluoro-methanesulfonic acid 3-(2-dimethylamino-ethyl)-1H-indol-5-yl ester] has a Ki of 30 nM. `CCCN(CCC)CCc1c[nH]c2ccc(OS(=O)(=O)C(F)(F)F)cc12` [Trifluoro-methanesulfonic acid 3-(2-dipropylamino-ethyl)-1H-indol-5-yl ester] gave a Ki of 36 nM.
